Patent US7259004B1, “Endophytic streptomycetes from higher plants with biological activity” (Montana State University, priority 2002, dated 2007)

Experiments:
[1] = system: Pseudomonas aeruginosa ATCC 27853; assay: disk diffusion assay; type: cell-based; conditions: 10 micrograms per disk; ciprofloxacin 5, vancomycin 30 micrograms per disk; 35° C. Note: key: R = resistant.
[2] = system: Vibrio fischeri PIC 345; assay: disk diffusion assay; type: cell-based; conditions: 10 micrograms per disk; ciprofloxacin 5, vancomycin 30 micrograms per disk; 35° C.
[3] = system: Enterococcus faecalis ATCC 29212; assay: disk diffusion assay; type: cell-based; conditions: 10 micrograms per disk; ciprofloxacin 5, vancomycin 30 micrograms per disk; 35° C.
[4] = system: Staphylococcus aureus ATCC 29213; assay: disk diffusion assay; type: cell-based; conditions: 10 micrograms per disk; ciprofloxacin 5, vancomycin 30 micrograms per disk; 35° C.
[5] = system: Escherichia coli ATCC 25922; assay: disk diffusion assay; type: cell-based; conditions: 10 micrograms per disk; penicillin G 10 units per disk; 35° C. Note: key: R = resistant.
[6] = system: S. maltophilia ATCC 13637; assay: disk diffusion assay; type: cell-based, Stenotrophomas maltophilia; conditions: 10 micrograms per disk; 35° C.
[7] = system: Enterococcus faecium ATCC 49624; assay: disk diffusion assay; type: cell-based; conditions: 10 micrograms per disk; ciprofloxacin 5, vancomycin 30 micrograms per disk; 35° C.
[8] = system: Cryptococcus neoformans ATCC 32045; assay: disk diffusion assay; type: cell-based; conditions: 10 micrograms per disk; 35° C.
[9] = system: S. aureus 29213; assay: microbroth dilution MIC; type: cell-based, Staphylococcus aureus
[10] = system: Listeria monocytogenes 19114; assay: microbroth dilution MIC; type: cell-based
[11] = system: Staphylococccus aureus 27734; assay: microbroth dilution MIC; type: cell-based, Staphylococcus aureus
[12] = system: Streptococcus pneumoniae 49619; assay: microbroth dilution MIC; type: cell-based
[13] = system: Human Breast Cancer Epithelial BT-20; assay: CellTiter 96 Aqueous Non-Radioactive Cell Proliferation Assay; type: cell-based; conditions: 96-144 hours; Table 7
[14] = system: Human Cervical Cancer Epithelial ME180; assay: as above; type: cell-based; conditions: 48 hours; Table 7
In short: (§1)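 Cells rested 5 h at 37° C after seeding, then treated in triplicate with two-fold serial dilutions of compound. A-549 and ME-180 were exposed for 48 h. After 1–4 h MTS reagent at 37° C, OD490 was read and corrected by subtracting medium-only blanks.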

[15] = system: Human Lung Cancer Epithelial A549; assay: as above; type: cell-based; conditions: 48 hours; Table 7
In short: as §1

[16] = system: Human Primary Mammary Epithelial HMEC; assay: as above; type: cell-based; conditions: 48 hours; Table 7
[17] = system: DNA synthesis in Bacillus subtilis; assay: macromolecular synthesis whole cell assay, [3H]thymidine incorporation; type: cell-based; conditions: for % [3H]thymidine (DNA synthesis) incorporation of that of the untreated culture: 1×MIC
[18] = system: RNA synthesis in Bacillus subtilis; assay: macromolecular synthesis whole cell assay, [3H]uridine incorporation; type: cell-based; conditions: for % [3H]uridine (RNA synthesis) incorporation of that of the untreated culture: 1×MIC
[19] = system: Protein synthesis in Bacillus subtilis; assay: macromolecular synthesis whole cell assay, [3H]amino acid mixture incorporation; type: cell-based; conditions: for % [3H]amino acid mixture (Protein synthesis) incorporation of that of the untreated culture: 1×MIC
[20] = system: Cell wall synthesis in Bacillus subtilis; assay: macromolecular synthesis whole cell assay, [3H]N-acetyl glucosamine incorporation; type: cell-based; conditions: for % [3H]N-acetyl glucosamine (Cell wall synthesis) incorporation of that of the untreated culture: 1×MIC
[21] = system: Aspergillus fumigatus; assay: microbroth dilution MIC
[22] = system: Bacillus subtilis; assay: microbroth dilution MIC
[23] = system: human red blood cells
[24] = system: Candida albicans; assay: microbroth dilution MIC
[25] = system: Staphyloccus aureus MH II Eli Lilly Co.; assay: microbroth dilution MIC; conditions: drug sensitive strain

munumbicin B
diameter of the zone of inhibition, Pseudomonas aeruginosa ATCC 27853 [1]: R
diameter of the zone of inhibition, Vibrio fischeri PIC 345 [2]: 16 mm
diameter of the zone of inhibition, Enterococcus faecalis ATCC 29212 [3]: 18 mm
diameter of the zone of inhibition, Staphylococcus aureus ATCC 29213 [4]: 15 mm
diameter of the zone of inhibition, Escherichia coli ATCC 25922 [5]: R
diameter of the zone of inhibition, S. maltophilia ATCC 13637 [6]: 9 mm
diameter of the zone of inhibition, Enterococcus faecium ATCC 49624 [7]: 21 mm
diameter of the zone of inhibition, Cryptococcus neoformans ATCC 32045 [8]: 12 mm
MIC S. aureus 29213 [9]: 0.5 micrograms/ml
MIC Listeria monocytogenes 19114 [10]: 4 micrograms/ml
MIC Staphylococccus aureus 27734 [11]: 0.5 micrograms/ml
MIC Streptococcus pneumoniae 49619 [12]: 0.5 micrograms/ml
IC50 Human Breast Cancer Epithelial BT-20 [13]: 0.019 micrograms/ml
IC50 Human Cervical Cancer Epithelial ME180 [14]: 0.140 micrograms/ml
IC50 Human Lung Cancer Epithelial A549 [15]: 0.019 micrograms/ml
IC50 Human Primary Mammary Epithelial HMEC [16]: 0.011 micrograms/ml
effect on DNA synthesis (in words) [17]: no effect
% [3H]thymidine (DNA synthesis) incorporation of that of the untreated culture ([17]; 5 min): 93%
% [3H]thymidine (DNA synthesis) incorporation of that of the untreated culture ([17]; 10 min): 102%
effect on RNA synthesis (in words) [18]: some inhibitory effect
% [3H]uridine (RNA synthesis) incorporation of that of the untreated culture ([18]; 5 min): 64%
% [3H]uridine (RNA synthesis) incorporation of that of the untreated culture ([18]; 10 min): 59%
effect on protein synthesis (in words) [19]: milder inhibitory effect
% [3H]amino acid mixture (Protein synthesis) incorporation of that of the untreated culture ([19]; 5 min): 85%
% [3H]amino acid mixture (Protein synthesis) incorporation of that of the untreated culture ([19]; 10 min): 74%
effect on cell wall synthesis (in words) [20]: some inhibitory effect
% [3H]N-acetyl glucosamine (Cell wall synthesis) incorporation of that of the untreated culture ([20]; 5 min): 81%
% [3H]N-acetyl glucosamine (Cell wall synthesis) incorporation of that of the untreated culture ([20]; 10 min): 59%
MIC Aspergillus fumigatus [21]: 20 micrograms/ml
MIC Bacillus subtilis ([22]; first listing in Table 4): 8 micrograms/ml
MIC Bacillus subtilis ([22]; second listing in Table 4): 2 micrograms/ml

munumbicin C
diameter of the zone of inhibition, Pseudomonas aeruginosa ATCC 27853 [1]: R
diameter of the zone of inhibition, Vibrio fischeri PIC 345 [2]: 9 mm
diameter of the zone of inhibition, Enterococcus faecalis ATCC 29212 [3]: 20 mm
diameter of the zone of inhibition, Staphylococcus aureus ATCC 29213 [4]: R
diameter of the zone of inhibition, Escherichia coli ATCC 25922 [5]: R
diameter of the zone of inhibition, S. maltophilia ATCC 13637 [6]: R
diameter of the zone of inhibition, Enterococcus faecium ATCC 49624 [7]: 23 mm
diameter of the zone of inhibition, Cryptococcus neoformans ATCC 32045 [8]: 12 mm
MIC S. aureus 29213 [9]: 1 micrograms/ml
MIC Listeria monocytogenes 19114 [10]: 4 micrograms/ml
MIC Staphylococccus aureus 27734 [11]: 0.5 micrograms/ml
MIC Streptococcus pneumoniae 49619 [12]: 0.125 micrograms/ml
IC50 Human Breast Cancer Epithelial BT-20 [13]: 0.013 micrograms/ml
IC50 Human Cervical Cancer Epithelial ME180 [14]: 0.1 micrograms/ml
IC50 Human Lung Cancer Epithelial A549 [15]: 0.3 micrograms/ml
IC50 Human Primary Mammary Epithelial HMEC [16]: 0.0023 micrograms/ml
concentration causing detectable lysis of human red blood cells [23]: > 80 micrograms/ml
MIC Candida albicans [24]: >10 micrograms/ml
MIC Aspergillus fumigatus [21]: 20 micrograms/ml
MIC Staphyloccus aureus MH II Eli Lilly Co. [25]: 0.4 micrograms/ml
MIC Bacillus subtilis ([22]; first listing in Table 4): >8 micrograms/ml
MIC Bacillus subtilis ([22]; second listing in Table 4): 0.25 micrograms/ml
